Test systems include SF-295; SF-268; HCT-116; SK-MEL-2; SN12C; UO-31; NCI-H23; ACHN; KM12; U-251; TK-10; CAKI-1; HOP-62; SNB-19; A549; EKVX; UACC-257; COLO 205.
Common to all, as to assay: NCI-60 cell line screen, 48 h

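All cell lines were grown in 96-well plates and treated with compound for 48 hours. GI50 is the concentration that inhibits growth by half.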 Active and inactive are the calls of the source. No stated cut-off is given here; in the data, active = GI50 up to about 1.1 µM and inactive = higher.

For `CN(C)c1ccc2c(NCCCCCCNc3ccnc4cc(N(C)C)ccc34)ccnc2c1`, the GI50 was 10.7 µM (inactive) in the test with SF-295; 28 µM (inactive) in the test with SF-268; 6.55 µM (inactive) in the test with HCT-116; 20.2 µM (inactive) in the test on SK-MEL-2; 6.79 µM (inactive) in the test on SN12C; 32.3 µM (inactive) in the test on UO-31. Also, the GI50 is 10.1 µM (inactive) with NCI-H23; 16.2 µM (inactive) in the test with ACHN; 8.26 µM (inactive) in the test with KM12; 5.32 µM (inactive) with U-251; 12.5 µM (inactive) in the test with TK-10; 42.6 µM (inactive) in the test with CAKI-1. Moreover, the GI50 in the test with HOP-62 was 19.2 µM (inactive); in the test with SNB-19, 0.605 µM (active); with A549, > 100 µM (inactive); with EKVX it was 36.1 µM (inactive); in the test on UACC-257 it was 14.9 µM (inactive).

With `C=CCC1(CC)C(=O)NC(=O)NC1=O` [ETALLOBARBITAL], the GI50 in the test on COLO 205 is > 100 µM (inactive); in the test with SF-295, > 10 µM (inactive); with SF-268 it was > 100 µM (inactive); with HCT-116 it was > 100 µM (inactive); with SN12C, > 100 µM (inactive); in the test with UO-31 it was > 100 µM (inactive). Besides, the GI50 in the test with NCI-H23, in the test with ACHN, in the test on KM12, in the test on U-251, in the test on TK-10 and in the test on HOP-62 was > 100 µM (inactive) each time. The GI50 in the test on SNB-19, with A549, with EKVX and with UACC-257 was > 100 µM (inactive) in each case.

With `OCc1c[te]c(-c2ccccc2)c1`, the GI50 with SF-295 was 2.25 µM (inactive); in the test on HCT-116, 17.5 µM (inactive); with SK-MEL-2, 25.8 µM (inactive); in the test with SN12C it was 16 µM (inactive); in the test with UO-31 it was 23.3 µM (inactive); with NCI-H23, 22.1 µM (inactive). The GI50 in the test on ACHN was 53.3 µM (inactive); in the test with KM12, 80.5 µM (inactive); in the test on U-251, 34.6 µM (inactive); in the test with TK-10, > 100 µM (inactive); in the test on CAKI-1, 47.4 µM (inactive); in the test on HOP-62 it was 32.2 µM (inactive). The results for the GI50 in the test with A549, with EKVX and in the test with UACC-257 were 63.2 µM (inactive), 99.8 µM (inactive) and 57.5 µM (inactive), respectively.

Regarding `CCOc1ccc(/N=N/c2ccc3oc(=O)c(/C(C)=N/NC(=O)CC(=O)Nc4cccc(OC)c4)cc3c2)cc1`, the GI50 is 28.1 µM (inactive) with COLO 205; 19 µM (inactive) in the test with SF-295; 13.3 µM (inactive) in the test on SF-268; 10.2 µM (inactive) in the test with HCT-116; 20.8 µM (inactive) with SK-MEL-2; 15.6 µM (inactive) with SN12C. In addition, the GI50 in the test with UO-31 was 12.3 µM (inactive); in the test on NCI-H23, 17.5 µM (inactive); in the test on ACHN it was 21.3 µM (inactive); in the test on KM12 it was 20.8 µM (inactive); in the test with U-251, 10.6 µM (inactive); with TK-10 it was 28.3 µM (inactive). Moreover, the GI50 is 17.9 µM (inactive) in the test on HOP-62; 12.2 µM (inactive) in the test with SNB-19; 28.2 µM (inactive) in the test with A549; 19.4 µM (inactive) in the test with EKVX; 3.8 µM (inactive) in the test on UACC-257.

Take `COc1ccc(C[C@@H]2Cc3cc(OC)c(OC)cc3CN2C)cc1`: the GI50 in the test on SF-295 was 57 µM (inactive); in the test on SF-268, > 100 µM (inactive); in the test on SK-MEL-2, > 100 µM (inactive); with SN12C, > 100 µM (inactive); in the test on UO-31, > 100 µM (inactive); in the test with NCI-H23, > 100 µM (inactive). Moreover, the GI50 in the test on ACHN is > 100 µM (inactive); in the test on KM12, > 100 µM (inactive); with U-251, > 100 µM (inactive); in the test with TK-10 it was > 100 µM (inactive); in the test with CAKI-1 it was 59.7 µM (inactive); in the test with HOP-62 it was > 100 µM (inactive). Moreover, the GI50 in the test on SNB-19, in the test with A549, in the test on EKVX and in the test on UACC-257 was > 100 µM (inactive) in each case.

With `N#Cc1ccccc1NC(=O)C(=O)C(C(=O)c1ccncc1)C1OC(=O)c2ccccc21` (stereo not drawn), the GI50 in the test on COLO 205, in the test on SF-295, in the test with SF-268, with HCT-116, with SN12C and in the test with UO-31 was > 100 µM (inactive) in each case. Also, the GI50 in the test on NCI-H23, in the test with ACHN, with KM12, with U-251, in the test on TK-10 and in the test on CAKI-1 was > 100 µM (inactive) in each case. Besides, the GI50 in the test with HOP-62, with SNB-19, in the test on A549, with EKVX and in the test with UACC-257 was > 100 µM (inactive) in each case.

`CCCCC1(C)C=C/C(=C2/C(=O)O/C(=C\C(=O)O)C2=O)O1` (stereo not drawn): the GI50 with COLO 205, in the test with SF-295, with HCT-116, in the test on SK-MEL-2, in the test with SN12C and in the test with UO-31 was > 100 µM (inactive) each time. Moreover, the GI50 with NCI-H23, with ACHN, in the test on KM12, in the test with U-251, with TK-10 and in the test on HOP-62 was > 100 µM (inactive) in each case. Also, the GI50 in the test on SNB-19, with A549, in the test with EKVX and in the test on UACC-257 was > 100 µM (inactive) throughout.

`COC1=CC(C2c3cc4c(cc3[C@@H](Nc3ccc(F)cc3)C3COC(=O)[C@H]23)OCO4)=CC(=O)C1=O` (stereo partly drawn): the GI50 was 15.7 µM (inactive) with COLO 205; 3.21 µM (inactive) in the test on SF-295; 8.05 µM (inactive) with SF-268; 9.89 µM (inactive) in the test on HCT-116; 4.32 µM (inactive) in the test with SN12C; 7.66 µM (inactive) with UO-31. Moreover, the GI50 is 2.88 µM (inactive) with NCI-H23; 3.1 µM (inactive) with ACHN; 13.3 µM (inactive) with KM12; 2.78 µM (inactive) in the test with U-251; 19.2 µM (inactive) with TK-10; 4.48 µM (inactive) in the test on CAKI-1. Moreover, the GI50 with HOP-62 was 1.61 µM (inactive); with SNB-19, 5.57 µM (inactive); with A549, 1.36 µM (inactive); in the test on EKVX, 20.5 µM (inactive); in the test on UACC-257, 37.6 µM (inactive).

For `Cc1ccc(C2=CC(=O)c3ccccc3C2=O)n1-c1ccccc1`, the GI50 was > 100 µM (inactive) in the test on COLO 205; > 100 µM (inactive) in the test on SF-295; > 100 µM (inactive) in the test with SF-268; 62.1 µM (inactive) in the test with HCT-116; > 100 µM (inactive) with SN12C; > 100 µM (inactive) with NCI-H23. For the same compound, the GI50 in the test with KM12 was 43.1 µM (inactive); with U-251, 46.7 µM (inactive); in the test on TK-10, > 100 µM (inactive); in the test on HOP-62 it was > 100 µM (inactive); with SNB-19, 35.6 µM (inactive); in the test with A549, > 100 µM (inactive). The GI50 in the test with EKVX was > 100 µM (inactive).

Regarding `CN(C)c1ccc(-c2cc(O)c3cc4c(cc3n2)OCO4)cc1`, the GI50 with COLO 205, in the test on SF-295, with SF-268, with HCT-116, in the test with SK-MEL-2 and in the test with SN12C was > 100 µM (inactive) throughout. Besides, the GI50 is > 100 µM (inactive) in the test with UO-31; > 100 µM (inactive) in the test with NCI-H23; > 100 µM (inactive) in the test with ACHN; > 100 µM (inactive) in the test with U-251; > 100 µM (inactive) in the test on TK-10; 73.5 µM (inactive) in the test with HOP-62. The GI50 with SNB-19, in the test with A549, in the test with EKVX and in the test with UACC-257 was > 100 µM (inactive) in each case.

Take `O=S(=O)(OI(OI(OS(=O)(=O)C(F)(F)F)c1ccccc1)c1ccccc1)C(F)(F)F`: the GI50 in the test with COLO 205 was 51.2 µM (inactive); in the test with SF-295, 21.7 µM (inactive); in the test on SF-268, 31.3 µM (inactive); with HCT-116, 23.7 µM (inactive); with SK-MEL-2, 38.5 µM (inactive); in the test on SN12C, 49.8 µM (inactive). Besides, the GI50 in the test with UO-31 is 47.2 µM (inactive); in the test on ACHN, 52.1 µM (inactive); in the test on KM12 it was 28.2 µM (inactive); in the test on U-251, > 100 µM (inactive); with TK-10, > 100 µM (inactive); with CAKI-1, 27.8 µM (inactive). The GI50 with HOP-62 was 90.8 µM (inactive); in the test on SNB-19 it was 44.3 µM (inactive); with A549, 46.8 µM (inactive); in the test on EKVX, 58.9 µM (inactive).

In the case of `O=c1c2cc(Br)ccc2nc(-c2ccccc2Cl)n1NCC1(O)OCC(O)C(O)C1O` (stereo not drawn), the GI50 in the test with COLO 205, with SF-295, with SF-268, in the test on HCT-116, in the test on SK-MEL-2 and in the test with SN12C was > 100 µM (inactive) throughout. The GI50 with UO-31, with NCI-H23, in the test with ACHN, in the test on KM12, in the test on U-251 and in the test with CAKI-1 was > 100 µM (inactive) in each case. Moreover, the GI50 in the test with HOP-62, in the test with SNB-19, with A549, with EKVX and with UACC-257 was > 100 µM (inactive) throughout.

The record behind these values is ChEMBL document CHEMBL1201862, “PubChem BioAssay data set” (2004).
